We go through twelve compounds from patent US8592395B2, “Therapeutic compounds” (GlaxoSmithKline LLC, priority 2009, dated 2013).

Each structure is given as a SMILES string.

A word on the IC50: it is the concentration that inhibits the measured activity by half. Low values mean inhibition by little substance, high ones a need for much substance.

In the assay the test system is HIV. Description: HOS assay (HOS-Luc HIV-1 LTR-luciferase reporter antiviral assay). The class given is cell-based. Particulars: Human immunodeficiency virus 1, 96 h; HOS-Luc cells (HOS-CD4.CCR5 with HIV-1 LTR-luciferase reporter), four-day incubation with virus, luciferase readout. The procedure:
HOS-Luc cells were created by introducing an HIV-1 LTR-luciferase reporter into HOS-CD4.CCR5 (NIH AIDS Research and Reference Reagents Program, cat. #3318). The cells were propagated in DMEM complete medium. Cells were split 1:20 by standard trypsinization when confluency reached 80% (roughly every 2 to 3 days).
Black-walled 96-well tissue culture plates were seeded with HOS-Luc at 6×10^3 cells per well in 50 μL DMEM containing 2% FBS and placed in a humidified incubator at 37° C., 5% CO2 overnight. The following day, test compounds were serially diluted in 4-fold increments at 2× the final concentration in DMEM+2% FBS+0.2% DMSO. Diluted compound (50 μL) was transferred to the HOS-Luc cells and the plates were placed in a humidified incubator at 37° C., 5% CO2 for 1 hr. An additional 60 μL of 2× compound was transferred to a clear-walled 96-well tissue culture plate and 60 μL of virus (diluted 1:50 in tissue culture media) was added to each well and thoroughly mixed. The virus input was previously determined by titrating the virus under assay conditions without compound and selecting a dilution that gives a response in the linear range of the curve and a signal to background of at least 30. The HIV/compound mixture (100 μL) was transferred to the black-walled plates containing 100 μL of cells/compound. The plates were placed in a humidified incubator at 37° C., 5% CO2 for four days. Following the four-day incubation, 150 μL of supernatant was removed and 50 μL of reconstituted Luclite (Promega) was added to each well. For cytotoxicity assessment, 50 μL of reconstituted CellTiter-GLo (Promega) was added to each well. Each plate was topsealed and read in a Topcount (Packard) luminometer at 1 s/well.
Raw data from the HOS-Luc assay were expressed as Relative Light Units (RLU) and normalized according to the following formula: (RLU at drug [ ]/RLU no drug)*100=% control
The potency of test compounds are reported as IC50 values derived from the four parameter Hill equation, defined as: y=Vmax*(1−(x^n/(K^n+x^n)))+Y2 Where:
y=normalized response data
Vmax=upper bound of response
Y2=lower bound or baseline of response
In general terms: In a reporter assay the amount or activity of a reporter protein is the signal.
In turn, `CC(=O)N1CCc2nc(C)n([C@H]3C[C@H]4CC[C@@H](C3)N4CCC(CNS(=O)(=O)c3ccccc3)c3ccccc3)c2C1` (stereo partly drawn) [Example 13, N-{4-[(1R,5S)-3-(5-acetyl-2-methyl-4,5,6,7-tetrahydro-3H-imidazo[4,5-c]pyridin-3-yl)-8-azabicyclo[3.2.1]oct-8-yl]-2-phenylbutyl}benzenesulfonamide] registered an IC50 of less than 0.01 µM.
Then `Cc1nc2ccccc2n1[C@H]1C[C@H]2CC[C@@H](C1)N2CCC(CNS(=O)(=O)NC1CCC1)c1ccccc1` (stereo partly drawn) [Example 14, N-cyclobutyl-N′-{4-[(1R,5S)-3-(2-methyl-1H-benzimidazol-1-yl)-8-azabicyclo[3.2.1]oct-8-yl]-2-phenylbutyl}sulfamide], with 0.01 to 0.1 µM; and `Cc1nc2ccccc2n1[C@H]1C[C@H]2CC[C@@H](C1)N2CCC(CNS(=O)(=O)NC1CCC(F)(F)CC1)c1ccccc1` (stereo partly drawn) [Example 15, N-(4,4-difluorocyclohexyl)-N′-{4-[(1R,5S)-3-(2-methyl-1H-benzimidazol-1-yl)-8-azabicyclo[3.2.1]oct-8-yl]-2-phenylbutyl}sulfamide], with 0.01 to 0.1 µM; and `Cc1nnc(C(C)C)n1[C@H]1C[C@H]2CC[C@@H](C1)N2CCC(CNC(=O)C1CCC(F)(F)CC1)c1ccccc1` (stereo partly drawn) [Example 16, 4,4-difluoro-N-(4-{(1R,5S)-3-[3-methyl-5-(1-methylethyl)-4H-1,2,4-triazol-4-yl]-8-azabicyclo[3.2.1]oct-8-yl}-2-phenylbutyl)cyclohexanecarboxamide], with 0.1 to 1 µM.
Then `Cc1nnc(C(C)C)n1[C@H]1C[C@H]2CC[C@@H](C1)N2CCC(CNS(=O)(=O)c1ccccc1)c1ccccc1` (stereo partly drawn) [Example 17, N-(4-{(1R,5S)-3-[3-methyl-5-(1-methylethyl)-4H-1,2,4-triazol-4-yl]-8-azabicyclo[3.2.1]oct-8-yl}-2-phenylbutyl)benzenesulfonamide], with 0.1 to 1 µM; and `Cc1nnc(C(C)C)n1[C@H]1C[C@H]2CC[C@@H](C1)N2CCC(CNC(=O)C1CC(F)(F)C1)c1ccccc1` (stereo partly drawn) [Example 18, 3,3-difluoro-N-(4-{(1R,5S)-3-[3-methyl-5-(1-methylethyl)-4H-1,2,4-triazol-4-yl]-8-azabicyclo[3.2.1]oct-8-yl}-2-phenylbutyl)cyclobutanecarboxamide], with 0.1 to 1 µM.
Then `Cc1nc2ccccc2n1[C@H]1C[C@H]2CC[C@@H](C1)N2CCC(C)(CNS(=O)(=O)c1ccccc1)c1ccccc1` (stereo partly drawn) [Example 19, N-{2-methyl-4-[(1R,5S)-3-(2-methyl-1H-benzimidazol-1-yl)-8-azabicyclo[3.2.1]oct-8-yl]-2-phenylbutyl}benzenesulfonamide], with 0.1 to 1 µM; and `Cc1nc2ccccc2n1[C@H]1C[C@H]2CC[C@@H](C1)N2CCC(C)(CN(C)S(=O)(=O)c1ccccc1)c1ccccc1` (stereo partly drawn) [Example 20, N-methyl-N-{2-methyl-4-[(1R,5S)-3-(2-methyl-1H-benzimidazol-1-yl)-8-azabicyclo[3.2.1]oct-8-yl]-2-phenylbutyl}benzenesulfonamide], with less than 0.01 µM.
For the compound `Cc1nc2ccccc2n1[C@H]1C[C@H]2CC[C@@H](C1)N2CCC(C)(CNC(=O)C1CCC(F)(F)CC1)c1ccccc1` (stereo partly drawn) [Example 21, 4,4-difluoro-N-{2-methyl-4-[(1R,5S)-3-(2-methyl-1H-benzimidazol-1-yl)-8-azabicyclo[3.2.1]oct-8-yl]-2-phenylbutyl}cyclohexanecarboxamide], the IC50 lay within 0.1 to 1 µM.
`Cc1nc2ccccc2n1[C@H]1C[C@H]2CC[C@@H](C1)N2CCC(C)(CN(C)C(=O)C1CCC(F)(F)CC1)c1ccccc1` (stereo partly drawn) [Example 22, 4,4-difluoro-N-methyl-N-{2-methyl-4-[(1R,5S)-3-(2-methyl-1H-benzimidazol-1-yl)-8-azabicyclo[3.2.1]oct-8-yl]-2-phenylbutyl}cyclohexanecarboxamide] yielded a 50% inhibitory concentration (IC50) of 0.1 to 1 µM.
Then `Cc1nnc(C(C)C)n1[C@@H]1C[C@H]2CC[C@@H](C1)N2CCC(C)(CNC(=O)C1CCC(F)(F)CC1)c1ccccc1` (stereo partly drawn) [Example 23, 4,4-difluoro-N-(2-methyl-4-{(1R,5S)-3-[3-methyl-5-(1-methylethyl)-4H-1,2,4-triazol-4-yl]-8-azabicyclo[3.2.1]oct-8-yl}-2-phenylbutyl)cyclohexanecarboxamide], with 0.1 to 1 µM; and `Cc1nnc(C(C)C)n1[C@@H]1C[C@H]2CC[C@@H](C1)N2CCC(C)(CNS(=O)(=O)c1ccccc1)c1ccccc1` (stereo partly drawn) [Example 24, N-(2-methyl-4-{(1R,5S)-3-[3-methyl-5-(1-methylethyl)-4H-1,2,4-triazol-4-yl]-8-azabicyclo[3.2.1]oct-8-yl}-2-phenylbutyl)benzenesulfonamide], with 0.1 to 1 µM.
